The source of these data is patent EP0377846A1, “Pharmaceutical mixture preparation containing nucleoside derivatives and pentosan polysulfate, and its manufacture and use” (HOECHST AKTIENGESELLSCHAFT, priority 1988, dated 1990).

Converted amounts (≈) assume the structure as drawn.

The subject of this assay is HIV 1. Description: Inhibition of HIV-induced syncytium formation in cultures of human lymphocytes (test of preparations against HIV in cell culture, microscopic reading on day 4 after infection). Type of assay: cell-based. The settings on record: Human immunodeficiency virus 1, 96 h, footnote of Tabelle 1, AZT alone, read-out: MHK-Wert. As for the experimental part:
RPMI pH 6,8 Komplettes Medium enthält zusätzlich 20 % foetales Kälberserum und 20 IU/ml rekombinantes Interleukin 2.
Aus frischem Spenderblut mittels Ficoll^R-Gradientenzentrifugation isolierte Lymphozyten werden unter Zusatz von 2 µg/ml Phytohämagglutinin (Wellcome) in komplettem Medium 36 h bei 37°C unter 5 % CO₂ kultiviert. Die Zellen werden nach Zusatz von 10 % DMSO bei einer Zelldichte von 5 x 10⁶ eingefroren und in flüssigem Stickstoff gelagert. Für den Versuch werden die Zellen aufgetaut, in RPMI-Medium gewaschen und in komplettem Medium 3 - 4 Tage kultiviert.
Die Prüfpräparate werden in komplettem Medium gelöst, üblicherweise in einer Konzentration von 1,2 mg/ml. In 24er Multiwell-Schalen werden jeweils 0,5 ml komplettes Medium gegeben. Nach Zusatz von 0,1 ml des gelösten Präparates wird durch Übertragung von jeweils 0,1 ml das Präparat in einer geometrischen Verdünnungsreihe, […], verdünnt. Zu allen Ansätzen werden 0,4 ml einer Suspension mit 5 x 10⁵ Lymphozyten pro ml gegeben.
Die Ansätze werden mit 0,1 ml eines Überstandes von HIV 1 infizierten Lymphozyten versetzt, der so eingestellt ist, daß im Ansatz der cytopathogene Effekt nach 3 - 4 Tagen erkennbar ist. Die Multiplizität der infektiösen Einheit beträgt hierbei 0,01 - 0,02.
Der Versuchsansatz enhält damit folgende Komponenten in komplettem Medium [formula] […]

`Cc1cn([C@H]2C[C@H](N=[N+]=[N-])[C@@H](CO)O2)c(=O)[nH]c1=O` [3′-Azido-3′-deoxythymidin]: the MIC was determined as 0.1 µg/mL (≈ 0.374 µM).
